Reference: patent US8501483B2, “Method of assessing cancer status in a breast cancer patient” (University College Dublin, National University of Ireland, …, priority 2008, dated 2013)

Experiments:
HOX-C11 = assay: Immunocytochemistry of HOX-C11 in tamoxifen-resistant cells; type: cell-based
Source text: (§1) Increased interactions between HOX-C11 and SRC-1 were found in endocrine resistant versus endocrine sensitive breast cancer. Furthermore these interactions were enhanced in the presence of endocrine modulators, tamoxifen and faslodex (FIG. 1). In primary breast cancer tissue HOX-C11 and SRC-1 were co-localised to the nucleus and perinuclear region of the tumour epithelial cells (FIG. 2). A greater interaction occurred in tamoxifen-resistant LY2 cells, compared with the parent MCF-7 sensitive cell line. HOX genes play a central role in ductal formation and lobulo-aleolar development by regulating epithelial proliferation and differentiation in the developing breast and have been implicated in steroid/growth-factor pathway crosstalk. […] S100β has been identified as a possible target gene of the HOX-C11 transcription factor. Several HOX responsive elements have been identified in the promoter of S100β and forced expression of HOX-C11 in neuronal cells induces expression of S100β. This family of calcium binding protein is secreted and has previously been associated with poor outcome and reduced disease-free survival in melanoma. Experimental data provides evidence for a functional interaction between SRC-1 and HOX-C11. Knockdown of SRC-1 using siRNA abrogated the HOX-C11 associated induction of S100β (FIG. 4B). […]

[1] = test system: interactions between SRC-1 and HOX-C11; assay: Immunoprecipitation of SRC-1 and subsequent immunoblot for HOX-C11 in endocrine resistant LY2 cells; type: cell-based; details: endocrine resistant breast cancer LY2 cells, 10^−8 M, FIG. 1
Method: FIG. 1: Confirmation of differential interactions between SRC-1 and HOX-C11 in endocrine resistant breast cancer LY2 cells in the presence of tamoxifen (4-OHT) and faslodex (ICI) (10^−8 M) was performed by immunoprecipitation of SRC-1 and subsequent immunoblot for HOX-C11.
as §1, with “S100β.” for “S100β. This family of calcium binding protein is secreted and has previously been associated with poor outcome and reduced disease-free survival in melanoma. Experimental data provides evidence for a functional interaction between SRC-1 and HOX-C11. Knockdown of SRC-1 using siRNA abrogated the HOX-C11 associated induction of S100β (FIG. 4B).”

Row | SMILES | HOX-C11 localisation when cells were treated (HOX-C11) | interactions between HOX-C11 and SRC-1 [1]
1 | C[C@]12CC[C@@H]3c4ccc(O)cc4C[C@@H](CCCCCCCCC[S+]([O-])CCCC(F)(F)C(F)(F)F)[C@H]3[C@@H]1CC[C@@H]2O (stereo partly shown) [faslodex] | translocate to the nucleus and peri-nuclear region | enhanced
2 | CC/C(=C(\c1ccccc1)c1ccc(OCCN(C)C)cc1)c1ccccc1 [tamoxifen] | translocate to the nucleus and peri-nuclear region | enhanced
